The term Kd denotes the concentration at which binding is half-saturated. A higher Kd goes with lower affinity. The koff is a measure of how fast the partners let go of each other.

The values below come from US20140296479A1, “D-APTIDE AND RETRO-INVERSO APTIDE WITH MAINTAINED TARGET AFFINITY AND IMPROVED STABILITY” (GWANGJU INSTITUTE OF SCIENCE AND TECHNOLOGY, priority 2011, published 2014).

Experiment [1] deals with HSA (Human serum albumin) (Homo sapiens, UniProt P02768). In words: BIAcore X (SPR) affinity for HSA. In kind it is binding. Particulars: for kon: PBS pH 7.4, read-out: ka. The procedure:
(§1) To investigate whether the activity is maintained where Aptamer-Like Peptides specifically binding to HSA (Human serum albumin), i.e., L-AptideHSA are converted into D- and Retro inverso (RI)-form, their affinity to a target was measured. Firstly, 3 peptides, L-AptideHSA ([…], all L-amino acids, SEQ ID NO:42), D-AptideHSA ([…], all D-amino acids, SEQ ID NO:42) and RI-AptideHSA ([…], all D-amino acids), were synthesized by Anigen Inc. (Korea). Their affinity for a target was determined using BIAcore X (Biacore AB, Uppsala, Sweden). HSA of 3000 RU was immobilized on CM5 chip (Biacore). A PBS (pH 7.4) was used as a running buffer, a flow rate was 30 μl/min, and the affinity was determined with BIAevaluation software (Biacore AB, Uppsala, Sweden) after measuring kinetics of various concentrations.
For orientation: In SPR one partner is held on a chip, and binding of the other changes the refractive index at the surface.

The target in experiment [2] is T1, fibronectin EDB (Homo sapiens, UniProt P02751).
T1 construct: Biotin-EDB of 2000 RU was immobilized on streptavidin SA chip
In words: BIAcore X (SPR) affinity for fibronectin EDB. The class given is binding. The procedure: To investigate whether the activity is maintained where Aptamer-Like Peptides specifically binding to fibronectin EDB, i.e., L-Aptide1EDB are converted into D- and Retro inverso (RI)-form, their affinity to a target was measured. Firstly, 3 peptides, L-Aptide1EDB ([…], all L-amino acids, SEQ ID NO:21), D-Aptide1EDB ([…], all D-amino acids, SEQ ID NO:21) and RI-Aptide1EDB ([…], all D-amino acids), were synthesized by Anigen Inc. (Korea). Their affinity for a target was determined using BIAcore X (Biacore AB, Uppsala, Sweden). Biotin-EDB of 2000 RU was immobilized on streptavidin SA chip (Biacore). A PBS (pH 7.4) was used as a running buffer, a flow rate was 30 μl/min, and the affinity was determined with BIAevaluation software (Biacore AB, Uppsala, Sweden) after measuring kinetics of various concentrations.

In experiment [3] the target is T2, VEGF121 (Homo sapiens, UniProt P15692).
T2 sequence (P15692 27-147 isoform P15692-9): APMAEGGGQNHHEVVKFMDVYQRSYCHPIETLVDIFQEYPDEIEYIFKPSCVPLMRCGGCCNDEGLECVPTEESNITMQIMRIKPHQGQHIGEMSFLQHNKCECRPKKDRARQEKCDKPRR
The experiment is described as follows: BIAcore X (SPR) affinity for VEGF. In kind it is binding. The procedure:
as §1, with “VEGF (Vascular endothelial growth factor),” for “HSA (Human serum albumin),”, “L-Aptide1VEGF” for “L-AptideHSA”, “NO:23), D-Aptide1VEGF” for “NO:42), D-AptideHSA”, “NO:23)” for “NO:42)”, “RI-Aptide1VEGF” for “RI-AptideHSA”, “VEGF121” for “HSA”

The target in experiment [4] is T3, VEGF121 (UniProt P15692-9 27-147).
T3 construct: VEGF121, 3000 RU, immobilised on a CM5 chip; also called Vascular endothelial growth factor
T3 sequence (looked up): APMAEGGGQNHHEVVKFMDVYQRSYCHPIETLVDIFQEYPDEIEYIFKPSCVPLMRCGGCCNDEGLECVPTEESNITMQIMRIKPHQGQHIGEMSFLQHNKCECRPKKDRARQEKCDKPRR
In words: SPR, BIAcore X; VEGF121 on CM5 chip, peptide as analyte. The procedure:
To investigate whether the activity is maintained where Aptamer-Like Peptides specifically binding to VEGF (Vascular endothelial growth factor), i.e., L-Aptide1VEGF are converted into D- and Retro inverso (RI)-form, their affinity to a target was measured. Firstly, 3 peptides, L-Aptide1VEGF ([…], all L-amino acids, SEQ ID NO:23), D-Aptide1VEGF ([…], all D-amino acids, SEQ ID NO:23) and RI-Aptide1VEGF ([…], all D-amino acids), were synthesized by Anigen Inc. (Korea). Their affinity for a target was determined using BIAcore X (Biacore AB, Uppsala, Sweden). VEGF₁₂₁ of 3000 RU was immobilized on CM5 chip (Biacore).

For experiment [5], the target named is T4, HSA (Human serum albumin) (human, UniProt P02768 25-609).
T4 construct: HSA, 3000 RU, immobilised on a CM5 chip; also called HAS
The experiment is described as follows: SPR, BIAcore X; HSA on CM5 chip, peptide as analyte. The procedure:
To investigate whether the activity is maintained where Aptamer-Like Peptides specifically binding to HSA (Human serum albumin), i.e., L-AptideHSA are converted into D- and Retro inverso (RI)-form, their affinity to a target was measured. Firstly, 3 peptides, L-AptideHSA ([…], all L-amino acids, SEQ ID NO:42), D-AptideHSA ([…], all D-amino acids, SEQ ID NO:42) and RI-AptideHSA ([…], all D-amino acids), were synthesized by Anigen Inc. (Korea). Their affinity for a target was determined using BIAcore X (Biacore AB, Uppsala, Sweden). HSA of 3000 RU was immobilized on CM5 chip (Biacore).

Setting [6] is: biotin-EDB on SA chip, PBS pH 7.4.
The mark [7] stands for this setting: VEGF121 on CM5 chip, PBS pH 7.4.

Where a SMILES comes first, the peptide text is derived from it. Where no end group is shown, it is not given here. [ ]: non-standard residue; d: D form.

T4 sequence (P02768 25-609 limits assumed): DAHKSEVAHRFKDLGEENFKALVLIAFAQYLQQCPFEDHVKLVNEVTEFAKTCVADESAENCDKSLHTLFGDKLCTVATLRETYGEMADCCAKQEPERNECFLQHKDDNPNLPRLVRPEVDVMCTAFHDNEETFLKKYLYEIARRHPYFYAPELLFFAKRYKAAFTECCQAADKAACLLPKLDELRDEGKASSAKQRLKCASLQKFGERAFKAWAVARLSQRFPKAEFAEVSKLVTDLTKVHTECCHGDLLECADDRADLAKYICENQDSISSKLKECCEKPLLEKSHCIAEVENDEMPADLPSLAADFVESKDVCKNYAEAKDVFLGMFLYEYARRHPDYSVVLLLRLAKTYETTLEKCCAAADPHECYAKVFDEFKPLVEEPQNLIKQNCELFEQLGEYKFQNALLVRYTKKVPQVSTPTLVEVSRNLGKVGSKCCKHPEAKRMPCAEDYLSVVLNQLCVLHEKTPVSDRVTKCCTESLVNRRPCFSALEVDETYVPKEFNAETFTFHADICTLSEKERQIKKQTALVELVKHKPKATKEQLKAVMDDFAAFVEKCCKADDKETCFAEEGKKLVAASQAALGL

Take `CC[C@@H](C)[C@@H](NC(=O)CNC(=O)[C@@H](CCCCN)NC(=O)[C@@H](Cc1c[nH]c2ccccc12)NC(=O)[C@H](NC(=O)[C@@H](Cc1c[nH]c2ccccc12)NC(=O)[C@@H](CCCCN)NC(=O)CNC(=O)[C@@H](CC(N)=O)NC(=O)[C@@H](CCC(=O)O)NC(=O)[C@@H](Cc1c[nH]c2ccccc12)NC(=O)[C@H](NC(=O)[C@@H](Cc1c[nH]c2ccccc12)NC(=O)[C@@H](CO)NC(=O)CNC(=O)[C@@H](Cc1ccccc1)NC(=O)[C@@H](CC(N)=O)NC(=O)[C@@H](Cc1ccccc1)NC(=O)[C@@H](Cc1c[nH]cn1)NC(=O)[C@@H](C)NC(=O)[C@H](N)Cc1c[nH]cn1)[C@H](C)O)[C@H](C)O)C(=O)N[C@H](Cc1c[nH]c2ccccc12)C(=O)N[C@H](CC(C)C)C(=O)N1CCC[C@@H]1C(=O)N[C@H](C)C(=O)N[C@H](CCCNC(=N)N)C(=O)O` [D-AptideHSA] (H-[dH][dA][dH][dF][dN][dF]G[dS][dW][dT][dW][dE][dN]G[dK][dW][dT][dW][dK]G[dI][dW][dL][dP][dA][dR]-OH; N-terminus and C-terminus assumed): the kd in experiment [1] (HSA on CM5 chip, PBS pH 7.4) came out at 0.014 s⁻¹. Further, in experiment [1] (HSA on CM5 chip), the kon was 97000 M⁻¹ s⁻¹.

In experiment [1] (HSA on CM5 chip, PBS pH 7.4), `CC[C@H](C)[C@H](NC(=O)CNC(=O)[C@H](CCCCN)NC(=O)[C@H](Cc1c[nH]c2ccccc12)NC(=O)[C@@H](NC(=O)[C@H](Cc1c[nH]c2ccccc12)NC(=O)[C@H](CCCCN)NC(=O)CNC(=O)[C@H](CC(N)=O)NC(=O)[C@H](CCC(=O)O)NC(=O)[C@H](Cc1c[nH]c2ccccc12)NC(=O)[C@@H](NC(=O)[C@H](Cc1c[nH]c2ccccc12)NC(=O)[C@H](CO)NC(=O)CNC(=O)[C@H](Cc1ccccc1)NC(=O)[C@H](CC(N)=O)NC(=O)[C@H](Cc1ccccc1)NC(=O)[C@H](Cc1c[nH]cn1)NC(=O)[C@H](C)NC(=O)[C@@H](N)Cc1c[nH]cn1)[C@@H](C)O)[C@@H](C)O)C(=O)N[C@@H](Cc1c[nH]c2ccccc12)C(=O)N[C@@H](CC(C)C)C(=O)N1CCC[C@H]1C(=O)N[C@@H](C)C(=O)N[C@@H](CCCNC(=N)N)C(=O)O` [L-AptideHSA] (H-HAHFNFGSWTWENGKWTWKGIWLPAR-OH; N-terminus and C-terminus assumed) had a kd of 0.013 s⁻¹. Also, the kon in experiment [1] (HSA on CM5 chip) was 95000 M⁻¹ s⁻¹.

With `CC[C@@H](C)[C@@H](NC(=O)[C@@H](CCCNC(=N)N)NC(=O)[C@@H](CC(C)C)NC(=O)[C@@H](CCC(=O)O)NC(=O)[C@H](N)CCC(N)=O)C(=O)N[C@@H](C(=O)NCC(=O)N[C@H](CCCCN)C(=O)N[C@H](Cc1c[nH]c2ccccc12)C(=O)N[C@@H](C(=O)N[C@H](Cc1c[nH]c2ccccc12)C(=O)N[C@H](CCCCN)C(=O)NCC(=O)N[C@H](CC(N)=O)C(=O)N[C@H](CCC(=O)O)C(=O)N[C@H](Cc1c[nH]c2ccccc12)C(=O)N[C@@H](C(=O)N[C@H](Cc1c[nH]c2ccccc12)C(=O)N[C@H](CO)C(=O)NCC(=O)N[C@@H](C(=O)N[C@H](C)C(=O)N[C@H](CO)C(=O)N[C@H](CO)C(=O)N[C@H](CS)C(=O)N[C@H](Cc1c[nH]cn1)C(=O)O)C(C)C)[C@H](C)O)[C@H](C)O)[C@H](C)CC` [RI-Aptide1EDB] (H-[dQ][dE][dL][dR][dI][dI]G[dK][dW][dT][dW][dK]G[dN][dE][dW][dT][dW][dS]G[dV][dA][dS][dS][dC][dH]-OH; N-terminus and C-terminus assumed), in experiment [2] (setting [6]), binding was characterised by a dissociation constant (Kd) of 58 nM and the “koff (dissociation rate constant)” value stood at 0.0011 s⁻¹. Moreover, the kon in experiment [2] (biotin-EDB on SA chip, PBS pH 7.4, read-out: ka) stood at 19000 M⁻¹ s⁻¹. For the same molecule, the “binding to target, in words” value in experiment [2] (compared with L-Aptide) is on record as “affinity similar to L-Aptide”.

As to `CC[C@@H](C)[C@@H](NC(=O)[C@@H](Cc1c[nH]c2ccccc12)NC(=O)[C@@H](CC(C)C)NC(=O)[C@H]1CCCN1C(=O)[C@@H](C)NC(=O)[C@H](N)CCCNC(=N)N)C(=O)NCC(=O)N[C@H](CCCCN)C(=O)N[C@H](Cc1c[nH]c2ccccc12)C(=O)N[C@@H](C(=O)N[C@H](Cc1c[nH]c2ccccc12)C(=O)N[C@H](CCCCN)C(=O)NCC(=O)N[C@H](CC(N)=O)C(=O)N[C@H](CCC(=O)O)C(=O)N[C@H](Cc1c[nH]c2ccccc12)C(=O)N[C@@H](C(=O)N[C@H](Cc1c[nH]c2ccccc12)C(=O)N[C@H](CO)C(=O)NCC(=O)N[C@H](Cc1ccccc1)C(=O)N[C@H](CC(N)=O)C(=O)N[C@H](Cc1ccccc1)C(=O)N[C@H](Cc1c[nH]cn1)C(=O)N[C@H](C)C(=O)N[C@H](Cc1c[nH]cn1)C(=O)O)[C@H](C)O)[C@H](C)O` [RI-AptideHSA] (H-[dR][dA][dP][dL][dW][dI]G[dK][dW][dT][dW][dK]G[dN][dE][dW][dT][dW][dS]G[dF][dN][dF][dH][dA][dH]-OH; N-terminus and C-terminus assumed), in experiment [1] (HSA on CM5 chip, PBS pH 7.4), binding was put at a Kd of 141 nM and the kd is 0.0082 s⁻¹. In addition, the kon in experiment [1] (HSA on CM5 chip) came to 58000 M⁻¹ s⁻¹. Moreover, the “binding to target, in words” value in experiment [1] (compared with L-Aptide) is listed as “affinity similar to L-Aptide”.

For “SQNYKWGKWTWKGNEWTWSGQFFNAH [RI-Aptide1VEGF]”, in experiment [3], the “binding to target, in words” value was “barely bound”. In addition, in experiment [3] (setting [7]), the Kd entry was “Non-binding”, the ka result is listed as “Non-binding” and the kd entry is reported as “Non-binding”.

B1: L-Aptide1VEGF (designed binder)
peptide: HANFFQGSWTWENGKWTWKGWKYNQS
notes: Synthetic 26-mer, all L-amino acids; also called L-AptideVEGF; Aptide1VEGF (L-form)
In the case of B1, in experiment [4], the Kd is 30 nM and the koff worked out at 0.01 s⁻¹.

B2: L-AptideHSA (designed binder)
peptide: HAHFNFGSWTWENGKWTWKGIWLPAR
notes: Synthetic 26-mer, all L-amino acids; also called AptideHSA (L-form)
With B2, in experiment [5], binding was characterised by a dissociation constant (Kd) of 142 nM and the koff was determined as 0.013 s⁻¹.

[dH][dA][dN][dF][dF][dQ]G[dS][dW][dT][dW][dE][dN]G[dK][dW][dT][dW][dK]G[dW][dK][dY][dN][dQ][dS] (designed binder) [D-Aptide1VEGF] returned a koff in experiment [4] of 0.0066 s⁻¹.

Molecule [dR][dA][dP][dL][dW][dI]G[dK][dW][dT][dW][dK]G[dN][dE][dW][dT][dW][dS]G[dF][dN][dF][dH][dA][dH] (designed binder) [RI-AptideHSA] registered a koff in experiment [5] of 0.0082 s⁻¹.

In experiment [5], [dH][dA][dH][dF][dN][dF]G[dS][dW][dT][dW][dE][dN]G[dK][dW][dT][dW][dK]G[dI][dW][dL][dP][dA][dR] (designed binder) [D-AptideHSA] showed a Kd of 153 nM and a koff of 0.014 s⁻¹.
